Measured values from PMC12664493, “Asparagine endopeptidase (AEP) inhibitor formulation via zein-based nanoparticle improves the therapeutic efficacy toward Alzheimer's disease” (Neurotherapeutics, 2025).
“And” between values parts separate entries of the source, which are not always exact repeats. Identical values can stand only once. Like-named read-outs stand apart in the source and are kept apart here.

Columns and labels:
BCRP = target: T1, BCRP (Homo sapiens, UniProt Q9UNQ0); experiment: Caco-2-BCRP assay with and without Ko143; assay type: in vitro ADME; conditions: for Papp A→B / Papp B→A / recovery: human
T1 construct: endogenous in cells; host or cells: Caco-2
T1 sequence (Q9UNQ0 1-655): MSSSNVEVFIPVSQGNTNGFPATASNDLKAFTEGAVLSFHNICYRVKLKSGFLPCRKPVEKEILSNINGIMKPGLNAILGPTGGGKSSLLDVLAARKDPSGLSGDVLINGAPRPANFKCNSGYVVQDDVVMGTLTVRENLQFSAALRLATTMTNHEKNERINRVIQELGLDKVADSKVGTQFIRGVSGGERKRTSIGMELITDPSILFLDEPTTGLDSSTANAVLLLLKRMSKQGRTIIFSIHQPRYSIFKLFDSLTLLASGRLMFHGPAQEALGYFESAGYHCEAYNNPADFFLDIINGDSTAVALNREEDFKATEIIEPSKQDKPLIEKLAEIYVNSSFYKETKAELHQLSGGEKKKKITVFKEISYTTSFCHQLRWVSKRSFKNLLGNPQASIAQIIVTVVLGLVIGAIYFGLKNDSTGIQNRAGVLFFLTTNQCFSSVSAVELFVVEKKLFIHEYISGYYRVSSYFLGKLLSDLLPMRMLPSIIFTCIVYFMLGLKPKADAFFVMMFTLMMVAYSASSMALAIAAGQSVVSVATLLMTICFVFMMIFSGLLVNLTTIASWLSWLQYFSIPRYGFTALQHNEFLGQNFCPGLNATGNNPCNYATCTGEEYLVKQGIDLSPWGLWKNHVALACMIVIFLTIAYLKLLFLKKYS

[1] = In vivo pharmacokinetics in CD-1 (ICR) mice, plasma and brain, LC-MS/MS; conditions: mouse
Text: Blood and brain tissues were collected at 0, 0.08, 0.25, 0.5, 1, 2, 4, and 8 h post-administration. For acute pharmacodynamic (PD) assessments, male and female 3xTg mice received oral doses of NP-11a-isopropyl at 7.5 mg/kg or 15 mg/kg, and blood and brain samples were collected 2 h after treatment.

[2] = PAMPA-BBB permeability assay; assay type: in vitro ADME; conditions: read-out: Permeability-PAMPA-BBB Pe
hERG K+ channel = hERG K+ channel (Homo sapiens, UniProt Q12809); experiment: hERG inhibition assay
AEP [3] = target: T2, AEP (Mus musculus, UniProt O89017); experiment: Acute PD in 3xTg mice: brain AEP enzymatic activity and immunoblotting; assay type: in vivo; conditions: 2 h
T2 construct: from tissue; host or cells: brain / hippocampus of 3xTg mice
T2 sequence (O89017 18-435): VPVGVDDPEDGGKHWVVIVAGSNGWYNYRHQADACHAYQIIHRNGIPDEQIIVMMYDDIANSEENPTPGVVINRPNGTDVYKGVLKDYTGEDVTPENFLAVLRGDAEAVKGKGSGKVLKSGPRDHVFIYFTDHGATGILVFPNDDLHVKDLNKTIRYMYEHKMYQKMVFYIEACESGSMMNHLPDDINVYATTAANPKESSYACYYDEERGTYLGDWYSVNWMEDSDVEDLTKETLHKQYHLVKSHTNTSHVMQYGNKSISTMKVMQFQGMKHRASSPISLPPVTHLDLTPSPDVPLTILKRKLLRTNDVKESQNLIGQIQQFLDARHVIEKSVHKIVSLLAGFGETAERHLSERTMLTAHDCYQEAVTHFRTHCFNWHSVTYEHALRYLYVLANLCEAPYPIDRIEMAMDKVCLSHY

Solubility (pH 7.4, PBS) = assay type: physicochemical
[4] = Stability in mouse plasma; assay type: in vitro ADME; conditions: read-out: Stability-Plasma T1/2
[5] = Stability in mouse hepatocytes; assay type: in vitro ADME
[6] = Plasma protein binding, mouse; assay type: in vitro ADME
P-glycoprotein (MDR1) = target: T3, P-glycoprotein (MDR1) (Homo sapiens, UniProt P08183); experiment: MDR1-MDCKII permeability assay (P-glycoprotein efflux); assay type: in vitro ADME; conditions: dog, MDCK-MDR1
T3 construct: expressed in transfected cells; host or cells: MDCKII

AEP [7] = target: T2, AEP; experiment: Chronic one-month oral treatment of 3xTg mice: AEP activation and substrate cleavage; assay type: in vivo; conditions: 7.5 mg/kg P.O. daily
Aβ42 = experiment: Aβ ELISA of brain tissue of 3xTg mice; assay type: in vivo, mouse; conditions: 7.5 mg/kg P.O. daily, one month
[8] = male, CD-1 (ICR), plasma, iv, I.V. 2 mg/kg
[9] = male, CD-1 (ICR), plasma, po, P.O. 5 mg/kg

T3 sequence (P08183 whole entry): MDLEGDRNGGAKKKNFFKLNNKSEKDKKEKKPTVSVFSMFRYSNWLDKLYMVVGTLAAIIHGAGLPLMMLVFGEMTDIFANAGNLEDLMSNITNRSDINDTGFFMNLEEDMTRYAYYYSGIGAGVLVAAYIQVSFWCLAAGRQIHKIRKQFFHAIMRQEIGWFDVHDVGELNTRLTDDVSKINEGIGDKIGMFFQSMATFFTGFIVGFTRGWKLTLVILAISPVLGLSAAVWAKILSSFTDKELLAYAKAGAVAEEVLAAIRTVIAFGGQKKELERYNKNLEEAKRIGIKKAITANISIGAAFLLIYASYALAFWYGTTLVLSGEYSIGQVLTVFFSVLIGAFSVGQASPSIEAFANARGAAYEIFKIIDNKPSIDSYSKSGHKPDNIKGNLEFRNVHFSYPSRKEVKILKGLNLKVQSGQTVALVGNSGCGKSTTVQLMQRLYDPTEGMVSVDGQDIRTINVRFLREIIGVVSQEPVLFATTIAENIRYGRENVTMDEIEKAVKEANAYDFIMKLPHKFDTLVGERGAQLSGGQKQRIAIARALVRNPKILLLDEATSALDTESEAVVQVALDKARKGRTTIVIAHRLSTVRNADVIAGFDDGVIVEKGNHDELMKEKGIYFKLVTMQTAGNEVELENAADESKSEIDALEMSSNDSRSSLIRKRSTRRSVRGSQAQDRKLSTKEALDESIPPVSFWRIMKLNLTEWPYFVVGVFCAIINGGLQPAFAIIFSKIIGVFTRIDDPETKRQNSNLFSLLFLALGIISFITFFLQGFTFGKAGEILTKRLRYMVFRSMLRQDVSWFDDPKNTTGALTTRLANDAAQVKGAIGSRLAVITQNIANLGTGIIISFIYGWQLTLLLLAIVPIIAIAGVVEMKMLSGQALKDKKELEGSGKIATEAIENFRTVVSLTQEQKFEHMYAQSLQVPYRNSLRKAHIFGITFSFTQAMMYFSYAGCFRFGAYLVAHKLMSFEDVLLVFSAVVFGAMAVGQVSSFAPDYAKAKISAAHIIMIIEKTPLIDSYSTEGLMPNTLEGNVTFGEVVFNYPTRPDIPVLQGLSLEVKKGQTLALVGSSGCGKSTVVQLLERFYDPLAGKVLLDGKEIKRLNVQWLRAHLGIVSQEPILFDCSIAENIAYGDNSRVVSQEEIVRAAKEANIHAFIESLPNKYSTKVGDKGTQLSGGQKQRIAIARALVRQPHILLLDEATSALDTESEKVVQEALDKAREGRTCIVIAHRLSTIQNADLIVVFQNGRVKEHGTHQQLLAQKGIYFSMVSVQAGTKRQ
Sequence of hERG K+ channel (Q12809 whole entry): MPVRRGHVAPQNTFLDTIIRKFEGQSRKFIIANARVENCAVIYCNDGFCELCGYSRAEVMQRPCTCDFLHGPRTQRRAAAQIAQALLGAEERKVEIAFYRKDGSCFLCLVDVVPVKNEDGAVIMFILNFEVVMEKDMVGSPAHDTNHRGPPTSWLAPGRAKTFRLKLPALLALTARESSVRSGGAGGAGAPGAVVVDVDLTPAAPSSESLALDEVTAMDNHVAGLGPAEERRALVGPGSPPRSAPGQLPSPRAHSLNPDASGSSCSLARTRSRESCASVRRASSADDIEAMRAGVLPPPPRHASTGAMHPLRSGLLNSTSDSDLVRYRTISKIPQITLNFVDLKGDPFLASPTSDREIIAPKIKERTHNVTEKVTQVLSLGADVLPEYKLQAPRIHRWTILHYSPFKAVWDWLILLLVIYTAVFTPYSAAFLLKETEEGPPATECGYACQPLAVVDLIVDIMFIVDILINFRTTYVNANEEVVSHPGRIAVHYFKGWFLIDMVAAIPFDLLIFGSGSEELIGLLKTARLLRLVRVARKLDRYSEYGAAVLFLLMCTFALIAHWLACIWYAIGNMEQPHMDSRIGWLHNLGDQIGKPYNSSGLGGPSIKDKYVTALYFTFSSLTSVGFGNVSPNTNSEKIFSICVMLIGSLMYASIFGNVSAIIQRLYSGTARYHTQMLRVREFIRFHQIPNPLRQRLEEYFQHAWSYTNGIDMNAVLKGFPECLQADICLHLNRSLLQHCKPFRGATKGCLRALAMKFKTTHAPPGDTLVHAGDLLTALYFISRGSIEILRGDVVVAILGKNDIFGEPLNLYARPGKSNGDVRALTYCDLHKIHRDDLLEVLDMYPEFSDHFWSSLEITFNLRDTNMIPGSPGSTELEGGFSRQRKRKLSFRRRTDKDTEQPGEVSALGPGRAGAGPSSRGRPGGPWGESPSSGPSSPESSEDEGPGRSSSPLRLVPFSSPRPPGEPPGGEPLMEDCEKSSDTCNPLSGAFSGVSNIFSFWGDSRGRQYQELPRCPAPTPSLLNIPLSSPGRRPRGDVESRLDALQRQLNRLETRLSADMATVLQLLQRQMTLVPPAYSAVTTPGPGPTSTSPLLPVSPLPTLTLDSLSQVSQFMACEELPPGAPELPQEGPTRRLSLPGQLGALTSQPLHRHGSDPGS

With `CC(C)Nc1nnc(Nc2cc(CO)c(N3CCOCC3)c3nonc23)s1` [11a-isopropyl] the BCRP substrate classification (BCRP) was “not a significant substrate of BCRP”, the Papp A→B (BCRP; Caco-2, with Ko143 2 μM) was 15.7 ×10⁻⁶ cm/s and the Papp B→A (BCRP; Caco-2, with Ko143 2 μM) was 35.7 ×10⁻⁶ cm/s. It also gave a recovery (BCRP; Caco-2, with Ko143 2 μM, Ko143 2 μM, read-out: Recovery (%) A→B) of 107%, a recovery (BCRP; Caco-2, with Ko143 2 μM, Ko143 2 μM, read-out: Recovery (%) B→A) of 98.5% and a Papp A→B (BCRP; Caco-2, Ko143 0 μM) of 12.1 ×10⁻⁶ cm/s. The Papp B→A (BCRP; Caco-2, Ko143 0 μM) was 35.7 ×10⁻⁶ cm/s, the recovery (BCRP; Caco-2, Ko143 0 μM, read-out: Recovery (%) A→B) was 91.8% and the recovery (BCRP; Caco-2, Ko143 0 μM, read-out: Recovery (%) B→A) was 104%. For the same compound, the MRT last ([1]; male, CD-1 (ICR), brain, iv, I.V. 2 mg/kg, read-out: Brain MRT (0-t)) was 143 min, the Tmax ([1]; male, CD-1 (ICR), brain, iv, I.V. 2 mg/kg, read-out: Brain Tmax) was 4.8 min and the MRT last ([1]; male, CD-1 (ICR), brain, po, P.O. 5 mg/kg, read-out: Brain MRT (0-t)) was 130 min. The Tmax ([1]; male, CD-1 (ICR), brain, po, P.O. 5 mg/kg, read-out: Brain Tmax) was 11.6 min, the half-life ([1]; male, CD-1 (ICR), brain, iv, 2 mg/kg, I.V. 2 mg/kg, read-out: Brain t1/2 (converted)) was roughly 120 min and the half-life ([1]; male, CD-1 (ICR), brain, po, 5 mg/kg, P.O. 5 mg/kg, read-out: Brain t1/2 (converted)) was 144 min. For the same compound, the clearance ([1]; male, CD-1 (ICR), plasma, iv, 2 mg/kg, I.V. 2 mg/kg, read-out: Plasma CLz (converted)) was 13.8 mL/min/kg, the half-life ([1]; male, CD-1 (ICR), plasma, iv, 2 mg/kg, I.V. 2 mg/kg, read-out: Plasma t1/2 (converted)) was 53.4 min and the bioavailability ([1]; male, CD-1 (ICR), plasma, oral, 5 mg/kg, P.O. 5 mg/kg vs I.V. 2 mg/kg, read-out: F* (%) oral bioavailability) was roughly 67.2%. It also gave a half-life ([1]; male, CD-1 (ICR), plasma, po, 5 mg/kg, P.O. 5 mg/kg, read-out: Plasma t1/2 (converted)) of roughly 43.8 min, an AUC(0-t) [1, 8] of 2410 ng·h/mL and a Cmax [1, 8] of 5160 ng/mL. It also gave an MRT last ([1]; male, CD-1 (ICR), plasma, iv, I.V. 2 mg/kg, read-out: Plasma MRT (0-t)) of 33.4 min, a Tmax ([1]; male, CD-1 (ICR), plasma, iv, I.V. 2 mg/kg, read-out: Plasma Tmax) of 4.8 min and an AUC(0-t) [1, 9] of 4050 ng·h/mL. The Cmax [1, 9] was 4770 ng/mL, the MRT last ([1]; male, CD-1 (ICR), plasma, po, P.O. 5 mg/kg, read-out: Plasma MRT (0-t)) was 50.9 min and the Tmax ([1]; male, CD-1 (ICR), plasma, po, P.O. 5 mg/kg, read-out: Plasma Tmax) was 8.22 min. For the same compound, the “Brain AUC (0-t)” value ([1]; I.V. 2 mg/kg, 2 mg/kg) was “approximately 921.71 ng/mL·h”, the “Brain Cmax” value ([1]; I.V. 2 mg/kg, 2 mg/kg) was 306.77 ng/mL and the “Brain AUC (0-t)” value ([1]; P.O. 5 mg/kg, 5 mg/kg) was ~385.36 ng·h/mL and 385.358 ng·h/mL. The “Brain Cmax” value ([1]; P.O. 5 mg/kg, 5 mg/kg) was 321.25 ng/mL and 321.248 ng/mL, the Papp [2] was 8.4 ×10⁻⁶ cm/s and the IC50 (hERG K+ channel) was greater than 10 µM. For the same compound, the “AEP enzymatic activity in the brain” value (AEP [3]; acute P.O. 7.5 and 15 mg/kg, dose-dependent) was “substantially inhibited”, the “Active AEP band intensity, hippocampus immunoblotting” value (AEP [3]; acute P.O.) was “further suppressed” and the solubility (Solubility (pH 7.4, PBS); aqueous buffer, pH 7.4, read-out: Solubility (pH, media)) was 2450 µg/mL. For the same compound, the solubility (Solubility (pH 7.4, PBS); pH 7.4, aqueous buffer, pH7.4, read-out: Solubility (pH, media)) was 6.25 mM, the half-life [4] was greater than 480 min and the hepatocyte CLint [5] was 9 µL/min/1e6 cells. The half-life ([5]; read-out: Stability-Hepatocytes T1/2) was 153 min, the “Plasma Protein F u, plasma(%)” value [6] was 20.4% and the fraction unbound ([6]; plasma, as a fraction, from Table S1, read-out: Unbound plasma fraction (fu, plasma)) was 0.204. For the same compound, the Papp A→B (P-glycoprotein (MDR1); a-b, first value in brackets) was 0.568 ×10⁻⁶ cm/s, the Papp B→A (P-glycoprotein (MDR1); b-a, second value in brackets) was 61.9 ×10⁻⁶ cm/s and the “AEP activation, APP N585 and Tau N368 fragmentation, hippocampus immunoblotting” value (AEP [7]) was “gradually reduced”. For the same compound, the “Aβ42 level in brain, ELISA” value (Aβ42) was “significantly reduced”.
